Laboratory results as given in PubChem BioAssay (NCI).
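Growth conditions: 96-well plates. Treatment: test compound, 48 hours, 5 concentrations. Analysis: linear interpolation between bracketing concentrations; unreached endpoints set to highest concentration. The concentration for 50% growth inhibition is given as GI50. TGI: total growth inhibition.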

What was measured:
Experiment in all cases: NCI-60 cell line screen, 48 h
HCT-116 colon = tested on: HCT-116 colon
MDA-MB-231 breast = tested on: MDA-MB-231 breast
NCI-H23 lung = tested on: NCI-H23 lung
MDA-MB-435 = tested on: MDA-MB-435
OVCAR-4 ovarian = tested on: OVCAR-4 ovarian
ACHN renal = tested on: ACHN renal
OVCAR-3 ovarian = tested on: OVCAR-3 ovarian
SN12C renal = tested on: SN12C renal
NCI/ADR-RES ovarian = tested on: NCI/ADR-RES ovarian
SK-MEL-28 melanoma = tested on: SK-MEL-28 melanoma

SMILES	TGI (HCT-116 colon) [µM]	TGI (MDA-MB-231 breast) [µM]	TGI (NCI-H23 lung) [µM]	TGI (MDA-MB-435) [µM]	TGI (OVCAR-4 ovarian) [µM]	TGI (ACHN renal) [µM]	TGI (OVCAR-3 ovarian) [µM]	TGI (SN12C renal) [µM]	TGI (NCI/ADR-RES ovarian) [µM]	TGI (SK-MEL-28 melanoma) [µM]	GI50 (HCT-116 colon) [µM]	GI50 (NCI-H23 lung) [µM]	GI50 (OVCAR-4 ovarian) [µM]	GI50 (OVCAR-3 ovarian) [µM]	GI50 (SN12C renal) [µM]	GI50 (NCI/ADR-RES ovarian) [µM]	GI50 (SK-MEL-28 melanoma) [µM]	GI50 (MDA-MB-231 breast) [µM]	GI50 (MDA-MB-435) [µM]	GI50 (ACHN renal) [µM]
O=C1C(=Cc2ccccc2[N+](=O)[O-])N=C(c2ccccc2)N1n1c(-c2ccccc2)nc2ccccc2c1=O	33.7	> 100	65	> 100	> 100	> 100	> 100	87.3	62.6	> 100										
COc1ccc(NS(=O)c2cccc(C)c2)cc1 (stereo unspecified)	> 100	> 100	> 100	> 100		> 100	> 100	> 100	> 100	> 100										
COc1ccc(C2=NNC(=O)c3ccccc3N2c2nc(-c3cccs3)nc3ccc(Br)cc23)cc1	> 100	> 100	> 100	> 100	> 100	> 100	52.5	> 100	62.4	> 100										
C=C1C(=O)O[C@H]2C3C(=C(C)CC[C@@H]12)C(=O)[C@@H]1OC31C (stereo partly specified)	2.7	8.08	6.4	7.13	3.39	8.07	4.38	3.18	10.7	5.52										
N#Cc1c(C#N)c(-c2ccccc2)n(/N=C\c2ccccc2)c1N	> 100	65.3	> 100	> 100	59.9	> 100	48.1	> 100	52.5											
O=S(=O)(/N=C1/SC(=Nc2ccccc2)N(c2ccccc2)/C1=N/S(=O)(=O)c1ccccc1)c1ccccc1	38.4	35.6	34.5			68.7		31.5		34										
O=C(NC/C=C/Br)NC1CCNc2ccccc21 (stereo unspecified)	> 100	> 100	55.4	88.9	> 100	> 100	> 100	> 100	99.7	> 100										
CC1(C)N=C(N)N=C(N)N1c1ccc(OCCCOc2ccccc2)c(Cl)c1	13.5		10.7		14.2		14	14.9	> 100	9.16										
Cc1ccc2c(=O)c(C(=O)N(CCO)CCO)c[nH]c2n1	> 100	> 100	> 100	> 100	> 100	> 100	> 100	> 100	> 100	> 100										
CN(C)C=Nc1nncc2n[nH]nc12	> 100	> 100	> 100	> 100		> 100	> 100	> 100	> 100	> 100										
COC(=O)C1=C(C)NC2(C)OC(C)(O)C(C(C)=O)C12C(C)=O (stereo unspecified)	> 100	> 100	> 100	> 100	> 100	> 100	> 100	> 100	> 100	> 100										
CC(C)CC(NC(=O)C(COc1ccc([N+](=O)[O-])cc1)Cc1ccccc1)C(=O)Nc1ccccc1 (stereo unspecified)	> 100	80.3	28.7	> 100	8.33	> 100	> 100	> 100	43.3											
COc1cc(S(=O)(=O)N/N=C/c2cc(Br)c(O)c(OC)c2)c(OC)cc1NC(C)=O	> 100	> 100	> 100	> 100	> 100	> 100	> 100	> 100	> 100	> 100										
CCOC(=O)C[n+]1ccc2c([nH]c3cc(OC)ccc32)c1C	> 100		> 100		> 100		> 100	> 100	> 100	> 100										
CC1(C)CC2(C)OC(=N)C1(C#N)C2(C#N)C#N (stereo unspecified)	20.1	21.2	21.4	33.3		20.3		21.7	29.5											
NC1CCCCC1N.O=S(=O)([O-])CCCN1CCN(CCO)CC1.O=S(=O)([O-])CCCN1CCN(CCO)CC1.[Pt+4]	> 100		> 100		19.2		> 36.4	> 100	> 37	29.8	2	7.36	1.63	4.44	7.56	1.47	8.22			
COc1ccc(N2C(=O)C(N3C(=O)C=CC3=O)C2C=O)cc1 (stereo unspecified)	> 100		> 100			> 100	> 100	> 100		> 100										
CCCCCCc1cn([C@H]2C[C@H](O)[C@@H](CO)O2)c(=O)[nH]c1=O	> 100		> 100		> 100		> 100	> 100	> 100	> 100										
CSC1NNC2(C(=O)N1)c1ccccc1-c1ccccc12 (stereo unspecified)	> 10	> 10	> 10	> 10	> 10	> 10		> 10	> 10	> 10										
O=C1OC(c2ccccc2)=N/C1=C/N1CCCC1C(=O)O (stereo unspecified)	> 100		> 100		> 100	> 100	> 100			> 100										
COc1cccc2c1[C@]1(O)C(O)CCCC21 (stereo partly specified)	> 100		> 100		> 100	> 100	> 100	> 100		> 100										
CCOC(=O)CCC(C(=O)OCC)n1nnc2cc(Nc3c(C)[n+]([O-])c4ccc(Cl)cc4[n+]3[O-])ccc21 (stereo unspecified)	> 100		> 100	> 100	> 100	> 100	> 100	> 100	> 100											
O=C1OC2C=CC1C1(CCOC1=O)C2 (stereo unspecified)	> 100		> 100		> 100	> 100	> 100	> 100		> 100										

SMILES	TGI (HCT-116 colon) [µM]	TGI (MDA-MB-231 breast) [µM]	TGI (NCI-H23 lung) [µM]	TGI (MDA-MB-435) [µM]	TGI (OVCAR-4 ovarian) [µM]	TGI (ACHN renal) [µM]	TGI (OVCAR-3 ovarian) [µM]	TGI (SN12C renal) [µM]	TGI (NCI/ADR-RES ovarian) [µM]	TGI (SK-MEL-28 melanoma) [µM]	GI50 (HCT-116 colon) [µM]	GI50 (NCI-H23 lung) [µM]	GI50 (OVCAR-4 ovarian) [µM]	GI50 (OVCAR-3 ovarian) [µM]	GI50 (SN12C renal) [µM]	GI50 (NCI/ADR-RES ovarian) [µM]	GI50 (SK-MEL-28 melanoma) [µM]	GI50 (MDA-MB-231 breast) [µM]	GI50 (MDA-MB-435) [µM]	GI50 (ACHN renal) [µM]
Oc1ccc2ccccc2c1OCc1nnc(CCCCCCCCc2nnc(COc3c(O)ccc4ccccc34)o2)o1	54.5	> 100	> 100	> 100	> 100	> 100		> 100	> 100	> 100										
Cc1nnc2sc(-c3ccc([N+](=O)[O-])o3)nn12	20.7	29.2	34.4	17.5	30.7	23.2	25.4	29.5	39											
CN(CCN(C)C(=O)CCn1ccc(=O)[nH]c1=O)C(=O)CCn1ccc(=O)[nH]c1=O	> 100		> 100		> 100	> 100	> 100	> 100		> 100										
COc1cc(C2(C)SCCCS2)c(I)c(OC)c1OC	> 100		> 100		> 100	> 100	> 100	> 100		> 100										
CCOC(=O)N1C(=S)C(C(=O)OC)(C(=O)OC)N=C1C	> 100		> 100	> 100	> 100	> 100	> 100	> 100	> 100	> 100										
CN(C)c1ccc(/C=C2\C[C@H]3[C@@H]4CCc5cc(O)ccc5[C@H]4CC[C@]3(C)C2=O)cc1		69	> 100	> 100	> 100	> 100	> 100		> 100	> 100										
O=c1/c(=C/c2ccc(-c3ccc(Cl)cc3Cl)o2)sc2n1[C@@H](c1ccc3c(c1)OCO3)C=C(c1cc(F)c(Cl)cc1Cl)N=2	> 100	57.2	> 100	> 100	> 100	> 100		> 100	> 100	> 100										
CC(=O)Nc1ccc(/C=C(\NC(=O)c2ccccc2)C(=O)NNS(=O)(=O)c2ccc(C)cc2)cc1	> 100		> 100		> 100	> 100	> 100	> 100		> 100										
O=c1c(-c2ccc(O)cc2)coc2cc(O)cc(O)c12			> 100	> 100	> 100	> 100		> 100	> 100	> 100										
CC1(C)Oc2ccc3c(=O)c4ccccc4oc3c2C1C(=O)O (stereo unspecified)	> 100	> 100	> 100	> 100	> 100		> 100	> 100	> 100											
c1ccc(-c2[nH]c(-c3ccccc3)c(-c3cnccn3)c2-c2cnccn2)cc1	> 100		> 100		> 100	> 100	> 100	> 100		> 100										
COC(=O)C(C(=O)OC)C1CC(=O)c2c(Br)sc(Br)c21 (stereo unspecified)	30.9		25.4	40.9	26.3	26.6	17.5	32.4	37.1	34.2										
CC(=O)[C@H]1CCC2[C@@H]3CC=C4C(O)C(OS(=O)(=O)O)CC[C@]4(C)C3CC[C@@]21C (stereo partly specified)	> 100		> 100		> 100		> 100	> 100	> 100	> 100										
CCOC(=O)c1c(-c2ccc(OC)c(O)c2)c(C#N)c(=S)n(C2OC(CO)C(O)C(O)C2O)c1-c1ccccc1 (stereo unspecified)	> 100		> 100	> 100	> 100	> 100		> 100	> 100	> 100										
O=C(O)CCCc1ccc2c(c1)CC1(C2)Cc2ccc(CCCC(=O)O)cc2C1	> 100	> 100	> 100	> 100	> 100	> 100	> 100	> 100	> 100											
Cc1ccc2cnc(N)c(C#Cc3cncc(C(=O)Nc4ccc(CN5CCN(C)CC5)c(C(F)(F)F)c4)c3)c2c1		0.839	1.25	0.805		0.864	1.29	1.07	2.09	1.25		0.492		0.633	0.387	0.746	0.616	0.186	0.166	0.252
CC(=O)O[C@H]1C(=O)[C@@]2(C)C(C(OC(=O)c3ccccc3)[C@]3(O)CC(OC(=O)C(O)C(NC(=O)c4ccccc4)c4ccc(C)cc4)C(C)=C1C3(C)C)[C@]1(OC(C)=O)CO[C@@H]1C[C@@H]2O (stereo partly specified)	4.75		21.8		> 25	> 25		> 25												
Cc1nn(-c2ccccn2)c2c1C(SC#N)=C(C=O)CC2	37.1	31.9	32.2	37.7		29.8	26.5	40.3	45.5	45.9										
CCOC(=O)c1cn(C)nc1N/C(C)=C\C(=O)c1ccccc1		> 100	> 100	> 100	> 100	> 100	> 100	> 100	> 100	> 100										
C=C1CC(OC)(C(O)C(=O)N[C@H]2OCO[C@H]3C2O[C@H](C[C@H](O)COC)C(C)(C)C3OC)O[C@H](C)[C@@H]1C (stereo partly specified)	> 0.00772		> 0.00772		> 0.00772		> 0.00772	> 0.00772	> 0.00772	> 0.00772										
C=C1C(=O)O[C@H]2C/C(C=O)=C\[C@H]3O[C@H]3/C(COC(=O)C(C)C)=C/CC12 (stereo partly specified)	10.1	17.3	20.3	18.9		6.59	19.3	7.11	33.8	14.8										
O=C(NCCCCNCCCNC(=O)OCc1ccccc1)OCc1ccccc1	70		> 100	> 100	> 100	> 100	> 100	> 100	> 100	40										
